For experiment [1], the system named is lupus-prone mice (MRL Lpr/+). To be noted: repeated injections; cited from earlier work.
Experiment [2] concerns Tfh-dependent B cell activation. As to the kind of experiment: Tfh-dependent B-cell maturation co-culture (memory B cells with SEB-stimulated Tfh cells, s-CD95L). Type of experiment: cell-based. To be noted: preincubation of Tfh cells.
For a further experiment, the target named is T1, CD95/FADD interaction (Homo sapiens, UniProt P25445+Q13158).
T1 construct: DD-CD95 (aa 210-303) fused to F2; the death domain of FADD (aa 80-210) (D) fused to F1; expressed in transfected cells; host or cells: HEK293T
T1 sequence (P25445 226-319): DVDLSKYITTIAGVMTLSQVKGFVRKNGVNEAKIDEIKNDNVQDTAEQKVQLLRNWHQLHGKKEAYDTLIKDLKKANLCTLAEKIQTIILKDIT
T1 sequence (Q13158 80-208): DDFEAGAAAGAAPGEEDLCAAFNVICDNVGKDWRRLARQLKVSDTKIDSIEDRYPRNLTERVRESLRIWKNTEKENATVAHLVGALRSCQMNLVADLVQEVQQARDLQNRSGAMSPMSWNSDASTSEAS
Nature of the experiment: Renilla luciferase protein-fragment complementation assay (PCA), CD95-DD/FADD-DD. Type of experiment: cell-based. To be noted: result in words; selectivity control. The text has this:
FIG. 1. Identification of chemical leads from the Prestwick library inhibiting the CD95/PLCγ1 interaction. A. Schematic representation of the protein-fragment complementation assay used with CD95-CID or -DD fused to F2 and PLCγ1-SH3 or FADD-DD fused to F1 to identify inhibitors from the Prestwick library. The Renilla luciferase enzyme was divided into amino-terminal and carboxy-terminal fragments (yellow domains) and fused to the indicated domains. B. Compounds from the Prestwick library were tested against CD95/PLCγ1 or CD95/FADD PCA. This library allowed us to select 34 hits based on their ability to inhibit CD95/PLCγ1 interaction (≥70% of signal inhibition) without altering CD95/FADD binding (ratio (CD95/PLCγ1 inhibition/CD95/FADD inhibition) ≥2). […] Inhibition of CD95/FADD interaction is also assessed.
A. CID-CD95 (aa 175-210) or DD-CD95 (aa 210-303) fused to F2 were co-transfected into HEK cells with the indicated domains of PLCγ1 (Ca^2+ response) or FADD (apoptosis) fused to F1. […] The inhibition of light emission for the indicated PPIs was assessed in cells incubated for the indicated times in the presence of TAT-CID (25 μM). […] Then, the indicated peptides fused with or without the cell-penetrating domain TAT were incubated at the indicated concentrations for 4 hrs and luminescence was assessed. […]

Experiment [3] has as its system CD95-mediated Ca2+ signaling pathway in Tfh cells. As to the kind of experiment: CD95-mediated Ca2+ response in Tfh cells. Type of experiment: cell-based, human. To be noted: Example 2; signal described for Th17 and circulating Tfh cells.
The target in another experiment is T2, CD95/PLCγ1 interaction (Homo sapiens, UniProt P19174).
T2 construct: The PLCγ1-SH3 domain (aa 790-851) (C); expressed in transfected cells; host or cells: HEK293T
T2 sequence (P19174 790-851): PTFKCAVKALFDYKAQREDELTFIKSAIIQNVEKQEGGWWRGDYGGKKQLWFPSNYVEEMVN
As to the kind of experiment: Renilla luciferase protein-fragment complementation assay (PCA), CD95-CID/PLCγ1-SH3. Format: cell-based. To be noted: PCA in HEK cells. The procedure:
FIG. 1. […] A. Schematic representation of the protein-fragment complementation assay used with CD95-CID or -DD fused to F2 and PLCγ1-SH3 or FADD-DD fused to F1 to identify inhibitors from the Prestwick library. The Renilla luciferase enzyme was divided into amino-terminal and carboxy-terminal fragments (yellow domains) and fused to the indicated domains. B. Compounds from the Prestwick library were tested against CD95/PLCγ1 or CD95/FADD PCA. […] Inhibition of CD95/FADD interaction is also assessed.
Light emission indicates refolding of the luciferase and reconstitution of enzyme activity through protein/protein interactions. […] Data represent means±SD of three independent experiments. […] Then, the indicated peptides fused with or without the cell-penetrating domain TAT were incubated at the indicated concentrations for 4 hrs and luminescence was assessed. Data represent means±SD of three independent experiments. […].
HEK293T cells were electroporated with 5 μg of DNA using BTM-830 electroporation generator (BTX Instrument Division, Harvard Apparatus) with 10 μg of DNA. Transfected cells were cultured for 24 hrs prior to protein complementation assay analyses as previously described (17). Briefly, transfected cells (10^6) were washed, resuspended in 100 μl PBS and deposited in OptiPlate-96 (PerkinElmer, Waltham, Mass., USA). Coelenterazine-h (5 μM, Sigma) was injected to each well and renilla luciferase activity was monitored for the first 10 seconds using Infinite200Pro (Tecan, Männedorf, Switzerland).
A peptide consisting of the cell-penetrating domain of TAT fused to CID (TAT-CID) binds the SH3 domain of PLCγ1 and thereby, prevents PLCγ1/CD95 interaction and the subsequent induction of the Ca^2+ response (16). […] Briefly, the Renilla luciferase enzyme was divided into two fragments (F1 and F2 fragments). […] Interaction of CD95 with PLCγ1 or FADD allows the reconstitution of RLuc and subsequent light emission (FIG. 1A). The chemical Prestwick library was screened against these PCAs (FIG. 1B). […] These molecules are designated CID inhibitors or CIDINH.

Values joined by “and” are separate entries in the source; they are usually repeats but may differ in a detail not shown here. Identical values can stand only once. Where no end group is shown, it is not given here.

Take “TAT-CID: peptide consisting of the CID (CD95 amino acids 175 to 210) conjugated to the cell-penetrating domain of TAT (KRKEVQKTCRKHRKENQGSHESPTLNPETVAINLSD; not fully specified (N-terminus); also: conjugated to TAT cell-penetrating domain, site not given here)”: in experiment [1], the “effect on clinical symptoms” value is “alleviate clinical symptoms” and the “effect on endothelial transmigration of Th17 cells in vivo” value is listed as “block”. In addition, the “effect on Tfh-dependent B cell activation” value in experiment [2] is reported as “blocks”. Also, in the experiment with CD95/FADD interaction, the “effect on CD95/FADD interaction” value was “failed to alter”. Further, the “effect on sCD95L-induced Ca2+ response” value in experiment [3] was “abrogated”. Besides, the IC50 with CD95/PLCγ1 interaction (peptides incubated for 4 hours, read-out: IC50, disruption of CD95/PLCγ1 interaction by peptides) was 10.8 µM and 11.5 µM. The “time course of inhibition of CD95/PLCγ1” value with CD95/PLCγ1 interaction (TAT-CID 25 μM) was “increased in a time dependent manner”.

The record behind these values is patent publication US20190350907A1, “METHODS AND PHARMACEUTICAL COMPOSITIONS FOR REDUCING CD95- MEDIATED CELL MOTILITY” (INSERM (INSTITUT NATIONAL DE LA SANTÉ ET DE LA RECHERCHE …, priority 2017, published 2019).
